These results are taken from PubChem BioAssay (NCI).

Some test systems named below: A549 NSCLC; COLO 205 colon; EKVX NSCLC; HCC-2998 colon; HCT-116 colon; K-562 leukemia; M14 melanoma; NCI-H23 lung; NCI-H460 lung; OVCAR-4 ovarian; OVCAR-5 ovarian; SF-295 CNS; SF-539 CNS; SN12C renal; UACC-62 melanoma; UO-31 renal; SNB-75 CNS.
What all share (test): growth of human tumour cells (NCI), 48 h

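Compound exposure: 48 hours, 5 concentrations, 96-well plates. The concentration for full growth arrest is given as TGI.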

`CS(=O)(=O)c1ccc(-c2cc(-c3ccc(S(C)(=O)=O)cc3)[n+](-c3cc(-c4ccccc4)c([O-])c(-c4ccccc4)c3)c(-c3ccc(S(C)(=O)=O)cc3)c2)cc1`: the TGI in the assay on A549 NSCLC, in the assay on COLO 205 colon, in the assay with EKVX NSCLC, in the assay with HCC-2998 colon, with HCT-116 colon and in the assay with K-562 leukemia was more than 100 µM each time. In addition, the TGI with M14 melanoma, in the assay with NCI-H23 lung, with NCI-H460 lung, in the assay on OVCAR-4 ovarian, with OVCAR-5 ovarian and with SF-295 CNS was more than 100 µM in each case. The TGI in the assay with SF-539 CNS, in the assay on SN12C renal, in the assay on UACC-62 melanoma and in the assay with UO-31 renal was more than 100 µM each time.
Consider `O=S(=O)(c1ccccc1)N1N=C2c3ccccc3CCC[C@H]2C1c1ccccc1` (stereo not given in full), for which the TGI in the assay on A549 NSCLC, in the assay on COLO 205 colon, with EKVX NSCLC, with HCC-2998 colon, in the assay with HCT-116 colon and in the assay on K-562 leukemia was more than 100 µM each time. Moreover, the TGI in the assay on M14 melanoma, in the assay on NCI-H23 lung, with NCI-H460 lung, in the assay on OVCAR-4 ovarian, in the assay on OVCAR-5 ovarian and with SF-295 CNS was more than 100 µM in each case. The TGI with SF-539 CNS, in the assay with SN12C renal, in the assay with SNB-75 CNS, with UACC-62 melanoma and with UO-31 renal was more than 100 µM in each case.
For `CC(Oc1ccc(OCC2CCCCC2)cc1)C(=O)OCC(=O)c1ccc(-c2ccccc2)cc1` (stereo not given), the TGI in the assay on A549 NSCLC, with HCC-2998 colon, in the assay with HCT-116 colon, in the assay on K-562 leukemia, in the assay on M14 melanoma and in the assay on NCI-H23 lung was more than 100 µM each time. For the same molecule, the TGI with NCI-H460 lung, in the assay on OVCAR-4 ovarian, in the assay with SF-295 CNS, in the assay with SF-539 CNS, with SN12C renal and in the assay with SNB-75 CNS was more than 100 µM each time. The TGI in the assay on UACC-62 melanoma and with UO-31 renal was more than 100 µM in each case.
As for `COc1ccc(/C=C(\C(C)=O)C(=O)Nc2ccccc2)cc1`, the TGI in the assay on A549 NSCLC, in the assay on EKVX NSCLC, in the assay on HCC-2998 colon, in the assay with HCT-116 colon, in the assay with K-562 leukemia and with M14 melanoma was more than 100 µM throughout. The TGI in the assay with NCI-H23 lung, with NCI-H460 lung, in the assay on OVCAR-4 ovarian, in the assay on OVCAR-5 ovarian, in the assay with SF-295 CNS and in the assay on SF-539 CNS was more than 100 µM throughout. Moreover, the TGI with SN12C renal, in the assay with UACC-62 melanoma and in the assay on UO-31 renal was more than 100 µM throughout.
In the case of `COc1cccc(C2CC23C(=O)NC(=O)NC3=O)c1` (stereo not given), the TGI with A549 NSCLC, with COLO 205 colon, in the assay on EKVX NSCLC, in the assay on HCC-2998 colon, with HCT-116 colon and in the assay with K-562 leukemia was more than 100 µM each time. For the same molecule, the TGI in the assay with M14 melanoma, in the assay with NCI-H23 lung, in the assay on NCI-H460 lung, in the assay with OVCAR-4 ovarian, in the assay with OVCAR-5 ovarian and in the assay on SF-295 CNS was more than 100 µM throughout. For the same molecule, the TGI in the assay with SF-539 CNS, in the assay on SN12C renal, in the assay with UACC-62 melanoma and in the assay on UO-31 renal was more than 100 µM each time.
For the molecule `COC(=O)[C@@]1(C)/C(=N/NS(=O)(=O)c2ccc(C)cc2)CCC[C@@H]1C`, the TGI in the assay with A549 NSCLC, with COLO 205 colon, in the assay with EKVX NSCLC, in the assay with HCC-2998 colon, with HCT-116 colon and with K-562 leukemia was more than 100 µM throughout. The TGI in the assay with M14 melanoma, in the assay on NCI-H23 lung, in the assay with NCI-H460 lung, in the assay on OVCAR-4 ovarian, in the assay on OVCAR-5 ovarian and with SF-295 CNS was more than 100 µM throughout. In addition, the TGI in the assay with SF-539 CNS, in the assay with SN12C renal, with SNB-75 CNS, with UACC-62 melanoma and in the assay with UO-31 renal was more than 100 µM throughout.
On to `CC1(C)CC(=O)CC(=Nc2ccc([N+](=O)[O-])cc2)C1`, for which the TGI is more than 100 µM in the assay on A549 NSCLC; more than 100 µM in the assay with COLO 205 colon; more than 100 µM in the assay with EKVX NSCLC; more than 100 µM in the assay with HCC-2998 colon; 40.9 µM in the assay with HCT-116 colon; more than 100 µM in the assay with K-562 leukemia. In addition, the TGI in the assay on M14 melanoma, with NCI-H23 lung, with NCI-H460 lung, in the assay on OVCAR-5 ovarian, in the assay on SF-295 CNS and in the assay on SN12C renal was more than 100 µM throughout. Moreover, the TGI with SNB-75 CNS, in the assay on UACC-62 melanoma and in the assay with UO-31 renal was more than 100 µM throughout.
On to `C=C(C)C1CCC2(C)CC1c1c(c(C)cc3c1[nH]c1ccccc13)O2` (stereo not given), for which the TGI in the assay on A549 NSCLC, in the assay on COLO 205 colon, in the assay on HCC-2998 colon, in the assay on HCT-116 colon, with K-562 leukemia and with M14 melanoma was more than 25 µM throughout. In addition, the TGI with NCI-H460 lung, in the assay on OVCAR-4 ovarian, in the assay with OVCAR-5 ovarian, in the assay with SF-539 CNS, in the assay on SN12C renal and in the assay on UACC-62 melanoma was more than 25 µM each time. Moreover, the TGI in the assay with UO-31 renal is more than 25 µM.
For `Cc1nn(C(=O)CC(=O)Nc2ccc(Cl)cc2)c(C)c1N=Nc1ccccc1C(=O)O`, the TGI in the assay on A549 NSCLC, with COLO 205 colon, with EKVX NSCLC, in the assay with HCC-2998 colon, in the assay with HCT-116 colon and in the assay on K-562 leukemia was more than 100 µM each time. The TGI with M14 melanoma, with NCI-H23 lung, with NCI-H460 lung, in the assay with OVCAR-4 ovarian, in the assay with OVCAR-5 ovarian and in the assay with SF-295 CNS was more than 100 µM each time. Moreover, the TGI in the assay on SF-539 CNS, in the assay on SN12C renal, with SNB-75 CNS, in the assay with UACC-62 melanoma and in the assay on UO-31 renal was more than 100 µM throughout.
